According to patent US9512086B2, “Compound for promoting apoptosis of cancer cells and a pharmaceutical composition containing the same and uses thereof” (National Chiao Tung University, priority 2014, dated 2016):

Tests used:
[1] = test system: BFTC905 human bladder cancer cell line; assay: MTT cell viability, BFTC905 cells; type: cell-based; details: 24 hours, in comparison with Iressa
Experimental: (§1) The above cell lines were plated in 96-well plates at a density of 1×10^4 cells/well for 16 to 20 hours. […] After drug treatment, the cell lines were washed with phosphate-buffered saline (hereinafter referred to PBS), and were replaced with fresh complete RPMI-1640 medium for 2 days. Thereafter, the medium was replaced and the cells were incubated with 0.5 mg/ml of 3-(4,5-dimethylthiazol-2-yl)-2,5-diphenyltetrazolium bromide reagent (hereinafter referred to MTT, Sigma Chemical Co., St. Louis, Mo.) in complete RPMI-1640 medium for 4 hours. The viable cells converted MTT to formazan that generates a blue-purple color when dissolved in dimethyl sulfoxide (hereinafter referred to DMSO). The intensity of formazan was measured at 565 nm using a plate reader (VERSAmax, Molecular Dynamics, Sunnyvale, Calif.). The relative percentage of cell viability was calculated by dividing the absorbance of treated cells by that of the control in each experiment.

A549 cell line = assay: MTT cell viability, A549 cell line; type: cell-based, human; details: Homo sapiens, A549 cell line, 24 hours, MTT
Experimental: as §1
(§2) After drug treatment, the cells were washed with PBS and replaced with fresh complete RPMI-1640 medium for 2 days. Thereafter, the medium was replaced and the cells were incubated with 0.5 mg/mL of MTT reagent (Sigma Chemical Co., St. Louis, Mo.) in complete RPMI-1640 medium for 4 hours. The intensity of formazan was measured at 565 nm using a plate reader (VERSAmax, Molecular Dynamics, Sunnyvale, Calif.). The relative percentage of cell viability was calculated by dividing the absorbance of treated cells by that of the control in each experiment.

[2] = test system: RKO human rectal cancer cell line; assay: MTT cell viability, RKO cells; type: cell-based; details: 24 hours, in comparison with Iressa
Experimental: as §1

[3] = molecular target: T1, MAPK14 (stress-activated protein kinase-2a) (Homo sapiens, UniProt Q16539); assay: KinaseProfiler assay, MAPK14; type: biochemical; details: read-out: KAR value (kinase activity remaining)
T1 construct: purchased Merck Millipore (KinaseProfiler service)
Description: (§3) The kinase activity remaining (KAR) value is […] related to kinase activity. […]

A549 cells [4] = assay: Cell growth, cell number by hemocytometer; type: cell-based, human; details: 30 μM for 24 hours, then cultured 2-6 days
Experimental: The cells were washed with PBS after the treatment. […] The cell number was calculated with hemocytometer.

A549 cells [5] = assay: Annexin V-PI apoptosis analysis by flow cytometry; type: cell-based, human; details: 10-40 μM for 24 hours
Experimental: The Annexin V-PI staining kit (BioVision, Mountain View, Calif.) was used to exam the cells by incubating with fluorescent isothiocyanate (FITC)-conjugated-Annexin V and PI according to the manufacturer's instruction. […] The cells were cultured in 60-mm Petri dish at a density of 7×10^5 cells for 16 to 20 hours. […] The cells were trypsinized and collected by centrifugation at 1500 rpm for 5 minutes. Thereafter, the cells were incubated with 500 μl Annexin V-PI labeling solution (containing 5 μl Annexin V-FITC and 5 μl PI in PBS) at room temperature in the dark for 5 minutes. To avoid cell aggregation, the cell solutions were filtered through a nylon mesh membrane (Becton-Dickinson, San Jose, Calif.). Finally, the samples were analyzed immediately using flow cytometer (FACS Calibur, BD Biosciences, Heidelberg, Germany). The percentage of Annexin V-PI staining cells was quantified from a minimum of 10,000 cells by CellQuest software (BD Biosciences).

survivin [6] = assay: Western blot of survivin protein expression in A549 cells; details: 0 to 40 μM, 24 hours
Experimental: (§4) The protease inhibitors including 1 μg/ml aprotinin, 0.5 μg/ml leupeptin, and 100 μg/ml 4-(2-aminoethyl)benzenesulfonyl fluoride were added to the cell suspensions. The lysates were vibrated for 30 minutes at 4° C. and centrifuged at 10,000 rpm for 10 minutes. The protein concentrations were determined by the BCA protein assay kit (Pierce, Rockford, Ill.). […] The membranes were blocked overnight at 4° C. using blocking buffer (5% non-fat dried milk in solution containing 50 mM Tris/HCl (pH 8.0), 2 mM CaCl2, 80 mM NaCl, 0.05% Tween 20 and 0.02% sodium azide). The membranes were sequentially hybridized with primary antibody and followed with a horseradish peroxidase-conjugated secondary antibody. The protein bands were visualized on the X-ray film using the enhanced chemiluminescence detection system (PerkinElmer Life and Analytical Sciences, Boston, Mass.). […] To verify equal protein loading and transfer, actin was used as the protein loading control. The gel digitizing software, Un-Scan-It gel (Ver. 5.1, Silk Scientific, Inc., Orem, Utah), was used to analyze the intensity of protein bands on X-ray film.
(§5) A549 cells were plated at a density of 1×10^6 cells per 60-mm Petri dish in complete medium for 16 to 20 hours. […] To verify equal protein loading and transfer, actin was used as the protein loading control.

survivin [7] = assay: RT-PCR of survivin gene expression in A549 cells; type: cell-based, human; details: 0 to 40 μM, 24 hours
Experimental: After the treatment, total cellular RNA was purified by ZR RNA MiniPrep™ (Zymo Research, Irvine, Calif.) according to the manufacturer's protocol. RNA concentrations were determined by spectrophotometry. cDNAs were synthesized by SuperScript™ III reverse transcriptase with oligo (dT)12-18 primer (Invitrogen). Each reverse transcript was amplified with GAPDH as an internal control. Reverse transcription polymerase chain reaction (RT-PCR) was performed by a DNA thermal cycler (Mastercycler gradient, Hamburg, Germany). […] The conditions of RT-PCR are stated as followed: the initial denaturation was performed at 94° C. for 2 minutes, followed by 30 cycles at 94° C. for 30 seconds, 56° C. for 30 seconds, and 72° C. for 40 seconds; and 72° C. for 5 minutes. The PCR products were visualized on 1.2% agarose gels with ethidium bromide staining under UV transillumination, and photograph was taken by a camera DH27-S3 (Medclub, Taoyuan, Taiwan).

A549 cells [8] = assay: Cell cycle analysis, PI staining and flow cytometry; type: cell-based, human; details: 40 μM, 24 hours, 60.5% before treatment
Experimental: After the treatment, the cells were collected and fixed with ice-cold 70% ethanol overnight at −20° C. After centrifugation at 1500 rpm for 5 minutes, the pellets were treated with 4 μg/ml PI solution containing 1% Triton X-100 and 50 μg/ml RNase at 37 °C for 30 minutes in the dark. To avoid cell aggregation, the cell solutions were filtrated through nylon membrane (Becton-Dickinson, San Jose, Calif.). Subsequently, the samples were analyzed by flow cytometry. For each measurement, 10,000 cells were analyzed for DNA content. The percentage of cell cycle phases was quantified by ModFit LT software (Ver. 2.0, Becton-Dickinson).

caspase 3 = assay: Western blot of active caspase 3 in A549 cells; details: 10-40 μM, 24 hours
Experimental: as §4, §5

[9] = molecular target: T2, CSNK2A1 (casein kinase-2) (Homo sapiens, UniProt P68400); assay: KinaseProfiler assay, CSNK2A1; type: biochemical; details: read-out: KAR value (kinase activity remaining)
T2 construct: purchased Merck Millipore (KinaseProfiler service)
Description: as §3

MARK2 (PAR-1Ba) = molecular target: T3, MARK2 (PAR-1Ba) (Homo sapiens, UniProt Q7KZI7); assay: KinaseProfiler assay, MARK2; type: biochemical; details: read-out: KAR value (kinase activity remaining)
T3 construct: purchased Merck Millipore (KinaseProfiler service)
Description: as §3

[10] = molecular target: T4, RET (product of ret proto-oncogene) (Homo sapiens, UniProt P07949); assay: KinaseProfiler assay, RET; type: biochemical; details: read-out: KAR value (kinase activity remaining)
T4 construct: purchased Merck Millipore (KinaseProfiler service)
Description: as §3

[11] = molecular target: T5, FGFR1 (fibroblast growth factor receptor-1) (Homo sapiens, UniProt P11362); assay: KinaseProfiler assay, FGFR1; type: biochemical; details: read-out: KAR value (kinase activity remaining)
T5 construct: purchased Merck Millipore (KinaseProfiler service)
Description: as §3

PARP = assay: Western blot of cleaved PARP in A549 cells; details: 10-40 μM, 24 hours
Experimental: as §4, §5

[12] = molecular target: T6, LIMK1 (LIM motif-containing protein kinase-1) (Homo sapiens, UniProt P53667); assay: KinaseProfiler assay, LIMK1; type: biochemical; details: read-out: KAR value (kinase activity remaining)
T6 construct: purchased Merck Millipore (KinaseProfiler service)
Description: as §3

[13] = molecular target: T7, STK10 (lymphocyte-oriented kinase) (Homo sapiens, UniProt O94804); assay: KinaseProfiler assay, STK10; type: biochemical; details: read-out: KAR value (kinase activity remaining)
T7 construct: purchased Merck Millipore (KinaseProfiler service)
Description: as §3

[14] = molecular target: T8, MKNK2 (MAPK-interacting kinase-2) (Homo sapiens, UniProt Q9HBH9); assay: KinaseProfiler assay, MKNK2; type: biochemical; details: read-out: KAR value (kinase activity remaining)
T8 construct: purchased Merck Millipore (KinaseProfiler service)
Description: as §3

[15] = molecular target: T9, SYK (splenic tyrosine kinase) (Homo sapiens, UniProt P43405); assay: KinaseProfiler assay, SYK; type: biochemical; details: read-out: KAR value (kinase activity remaining)
T9 construct: purchased Merck Millipore (KinaseProfiler service)
Description: as §3

[16] = MTT cell viability, HFL1 normal lung fibroblasts; type: cell-based; details: human, HFL1 normal lung fibroblast cells, 0 to 40 μM
Experimental: as §2

T2 sequence (P68400 whole entry): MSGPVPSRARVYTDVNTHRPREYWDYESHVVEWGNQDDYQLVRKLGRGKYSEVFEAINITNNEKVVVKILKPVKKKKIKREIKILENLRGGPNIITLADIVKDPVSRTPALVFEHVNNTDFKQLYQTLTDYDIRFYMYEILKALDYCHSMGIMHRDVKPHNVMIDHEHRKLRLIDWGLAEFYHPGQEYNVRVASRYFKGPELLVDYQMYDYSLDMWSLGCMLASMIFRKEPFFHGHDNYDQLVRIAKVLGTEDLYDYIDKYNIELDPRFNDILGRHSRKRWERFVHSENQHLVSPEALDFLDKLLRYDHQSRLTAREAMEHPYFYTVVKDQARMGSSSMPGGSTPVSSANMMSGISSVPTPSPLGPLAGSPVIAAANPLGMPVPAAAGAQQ
T5 sequence (P11362 22-822): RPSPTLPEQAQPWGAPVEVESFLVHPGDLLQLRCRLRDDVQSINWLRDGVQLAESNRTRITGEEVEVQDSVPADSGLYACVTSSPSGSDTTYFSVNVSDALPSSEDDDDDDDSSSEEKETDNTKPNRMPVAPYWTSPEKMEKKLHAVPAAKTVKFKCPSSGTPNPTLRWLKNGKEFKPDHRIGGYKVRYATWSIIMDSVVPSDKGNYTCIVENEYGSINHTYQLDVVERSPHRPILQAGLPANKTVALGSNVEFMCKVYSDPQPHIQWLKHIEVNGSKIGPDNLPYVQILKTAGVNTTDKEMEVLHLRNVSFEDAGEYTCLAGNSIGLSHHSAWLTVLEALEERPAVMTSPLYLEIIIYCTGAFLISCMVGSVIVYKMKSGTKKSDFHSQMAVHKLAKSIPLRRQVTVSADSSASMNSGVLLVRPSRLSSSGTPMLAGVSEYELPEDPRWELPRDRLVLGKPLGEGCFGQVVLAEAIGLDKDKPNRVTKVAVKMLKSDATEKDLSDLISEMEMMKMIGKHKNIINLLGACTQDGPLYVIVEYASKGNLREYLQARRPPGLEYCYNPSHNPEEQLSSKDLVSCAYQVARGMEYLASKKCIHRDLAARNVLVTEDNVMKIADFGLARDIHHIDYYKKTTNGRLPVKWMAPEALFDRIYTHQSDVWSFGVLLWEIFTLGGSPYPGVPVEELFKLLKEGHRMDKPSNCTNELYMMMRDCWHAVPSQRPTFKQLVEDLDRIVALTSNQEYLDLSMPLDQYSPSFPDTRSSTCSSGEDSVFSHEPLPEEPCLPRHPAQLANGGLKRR
T3 sequence (Q7KZI7 1-725 isoform Q7KZI7-4): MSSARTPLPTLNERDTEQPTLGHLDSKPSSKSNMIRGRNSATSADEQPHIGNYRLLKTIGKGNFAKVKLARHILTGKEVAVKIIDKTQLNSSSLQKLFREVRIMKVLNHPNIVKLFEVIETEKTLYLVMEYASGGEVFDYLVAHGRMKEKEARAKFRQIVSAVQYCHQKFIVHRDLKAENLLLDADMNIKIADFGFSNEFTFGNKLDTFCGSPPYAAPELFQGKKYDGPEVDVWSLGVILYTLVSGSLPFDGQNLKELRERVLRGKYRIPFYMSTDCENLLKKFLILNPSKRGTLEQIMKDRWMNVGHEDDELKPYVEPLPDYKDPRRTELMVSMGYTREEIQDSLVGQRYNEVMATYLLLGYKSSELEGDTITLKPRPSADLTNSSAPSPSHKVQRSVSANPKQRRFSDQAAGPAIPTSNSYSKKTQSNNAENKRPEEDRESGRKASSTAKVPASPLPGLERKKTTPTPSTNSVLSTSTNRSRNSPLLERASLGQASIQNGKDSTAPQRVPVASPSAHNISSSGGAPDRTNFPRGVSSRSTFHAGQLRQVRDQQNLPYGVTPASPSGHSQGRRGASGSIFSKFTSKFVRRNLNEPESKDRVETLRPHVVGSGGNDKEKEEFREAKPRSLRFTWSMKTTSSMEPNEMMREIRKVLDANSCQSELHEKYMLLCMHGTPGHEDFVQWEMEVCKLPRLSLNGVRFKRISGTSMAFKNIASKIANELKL
T7 sequence (O94804 whole entry): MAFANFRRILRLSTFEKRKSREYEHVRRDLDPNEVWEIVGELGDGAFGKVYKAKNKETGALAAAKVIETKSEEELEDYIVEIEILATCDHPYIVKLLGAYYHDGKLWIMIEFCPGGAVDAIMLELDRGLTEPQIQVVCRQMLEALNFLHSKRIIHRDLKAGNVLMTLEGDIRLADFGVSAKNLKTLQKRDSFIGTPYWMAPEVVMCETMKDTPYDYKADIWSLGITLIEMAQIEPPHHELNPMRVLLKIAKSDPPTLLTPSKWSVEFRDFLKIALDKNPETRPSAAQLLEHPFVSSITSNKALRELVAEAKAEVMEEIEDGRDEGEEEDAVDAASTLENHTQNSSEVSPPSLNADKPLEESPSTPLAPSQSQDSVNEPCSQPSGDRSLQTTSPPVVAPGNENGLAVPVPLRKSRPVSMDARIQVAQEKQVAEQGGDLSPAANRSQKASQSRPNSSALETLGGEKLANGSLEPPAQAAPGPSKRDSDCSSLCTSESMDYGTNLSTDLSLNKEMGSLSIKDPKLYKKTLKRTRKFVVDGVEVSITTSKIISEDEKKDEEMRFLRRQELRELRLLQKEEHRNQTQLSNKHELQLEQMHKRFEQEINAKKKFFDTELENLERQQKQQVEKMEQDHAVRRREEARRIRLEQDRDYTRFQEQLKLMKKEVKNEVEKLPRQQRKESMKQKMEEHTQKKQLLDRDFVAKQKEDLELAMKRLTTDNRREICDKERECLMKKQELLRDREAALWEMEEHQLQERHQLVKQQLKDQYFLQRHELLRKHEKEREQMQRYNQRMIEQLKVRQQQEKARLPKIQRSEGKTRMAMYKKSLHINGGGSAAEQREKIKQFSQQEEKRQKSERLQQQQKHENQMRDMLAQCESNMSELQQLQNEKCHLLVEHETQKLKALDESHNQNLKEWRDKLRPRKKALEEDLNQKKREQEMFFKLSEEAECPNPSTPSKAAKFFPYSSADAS
T1 sequence (Q16539 whole entry): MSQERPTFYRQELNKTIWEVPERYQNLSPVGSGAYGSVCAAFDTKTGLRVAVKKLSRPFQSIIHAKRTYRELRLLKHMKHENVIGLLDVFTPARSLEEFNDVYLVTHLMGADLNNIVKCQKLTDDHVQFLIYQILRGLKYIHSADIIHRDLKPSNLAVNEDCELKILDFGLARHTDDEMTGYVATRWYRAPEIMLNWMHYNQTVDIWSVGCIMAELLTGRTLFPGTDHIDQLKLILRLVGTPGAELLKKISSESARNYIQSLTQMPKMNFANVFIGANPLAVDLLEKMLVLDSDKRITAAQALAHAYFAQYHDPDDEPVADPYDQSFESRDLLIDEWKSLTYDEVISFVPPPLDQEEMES
T4 sequence (P07949 29-1114): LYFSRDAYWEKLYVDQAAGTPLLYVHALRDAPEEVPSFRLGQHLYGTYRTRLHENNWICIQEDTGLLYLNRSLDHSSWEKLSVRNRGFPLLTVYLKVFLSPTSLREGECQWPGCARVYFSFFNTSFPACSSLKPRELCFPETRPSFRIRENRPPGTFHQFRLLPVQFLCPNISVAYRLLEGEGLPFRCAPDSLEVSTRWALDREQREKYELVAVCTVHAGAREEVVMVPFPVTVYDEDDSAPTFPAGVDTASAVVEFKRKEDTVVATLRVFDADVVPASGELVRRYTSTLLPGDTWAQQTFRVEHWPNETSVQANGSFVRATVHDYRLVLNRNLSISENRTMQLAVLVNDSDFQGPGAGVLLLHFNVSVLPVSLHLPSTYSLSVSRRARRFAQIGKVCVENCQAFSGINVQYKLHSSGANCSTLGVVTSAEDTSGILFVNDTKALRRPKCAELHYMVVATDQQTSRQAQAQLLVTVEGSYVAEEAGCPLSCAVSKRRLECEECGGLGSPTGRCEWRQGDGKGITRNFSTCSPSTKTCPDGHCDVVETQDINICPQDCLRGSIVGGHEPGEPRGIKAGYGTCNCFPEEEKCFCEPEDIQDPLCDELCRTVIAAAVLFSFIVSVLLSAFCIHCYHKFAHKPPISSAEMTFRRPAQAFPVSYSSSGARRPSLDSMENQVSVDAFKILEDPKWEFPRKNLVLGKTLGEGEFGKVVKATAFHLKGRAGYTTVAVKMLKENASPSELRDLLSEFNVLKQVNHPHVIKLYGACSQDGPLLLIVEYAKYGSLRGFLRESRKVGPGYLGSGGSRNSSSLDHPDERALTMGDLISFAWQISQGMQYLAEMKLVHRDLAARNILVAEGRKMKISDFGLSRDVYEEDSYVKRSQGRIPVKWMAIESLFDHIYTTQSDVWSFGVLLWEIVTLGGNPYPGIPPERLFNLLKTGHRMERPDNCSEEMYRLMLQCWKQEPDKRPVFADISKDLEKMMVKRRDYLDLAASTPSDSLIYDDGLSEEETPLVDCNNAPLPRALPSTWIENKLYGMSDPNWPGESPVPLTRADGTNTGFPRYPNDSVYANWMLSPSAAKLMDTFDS
T8 sequence (Q9HBH9 whole entry): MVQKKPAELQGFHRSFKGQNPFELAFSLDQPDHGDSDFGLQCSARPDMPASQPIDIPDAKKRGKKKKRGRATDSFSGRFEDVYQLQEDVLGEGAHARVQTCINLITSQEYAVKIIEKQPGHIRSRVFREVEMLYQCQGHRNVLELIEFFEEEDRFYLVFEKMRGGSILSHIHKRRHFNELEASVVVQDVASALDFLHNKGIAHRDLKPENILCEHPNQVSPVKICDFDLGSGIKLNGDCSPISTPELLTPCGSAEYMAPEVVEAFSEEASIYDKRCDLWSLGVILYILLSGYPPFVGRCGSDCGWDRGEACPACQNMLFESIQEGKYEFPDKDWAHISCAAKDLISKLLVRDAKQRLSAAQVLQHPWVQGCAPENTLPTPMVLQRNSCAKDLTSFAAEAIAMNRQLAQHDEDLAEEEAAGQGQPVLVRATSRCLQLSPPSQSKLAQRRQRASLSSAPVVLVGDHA

In the case of `COC(=O)CCC(=O)N1CCN(CCCOc2cc3c(Nc4ccc(F)c(Cl)c4)ncnc3cc2OC)CC1` [Analogue-1, methyl 4-(4-(3-(4-(3-chloro-4-fluorophenylamino)-7-methoxyquinazolin-6-yloxy)propyl)piperazin-1-yl)-4-oxobutanoate], the “toxicity effect on BFTC905 cells” value [1] is reported as “more effective on cell death of RKO cells and BFTC905 cells than Iressa”, the viability at 10 µM (A549 cell line) is reported as 89.1% and the viability at 20 µM (A549 cell line) is reported as 85.6%. The viability at 40 µM (A549 cell line) was 75.9%, the viability at 60 µM (A549 cell line) was 74.4% and the viability at 80 µM (A549 cell line) was 75.9%. The “toxicity effect on RKO cells” value [2] was “more effective on cell death of RKO cells and BFTC905 cells than Iressa”.

With `COc1cc2ncnc(Nc3ccc(F)c(Cl)c3)c2cc1OCCCN1CCOCC1` [Iressa, Gefitinib, reference compound] the remaining activity at 10 µM [3] was 20%, the “cell growth of A549 cells” value (A549 cells [4]) was “inhibit cell growth of A549 cells” and the “average of total apoptosis” value (A549 cells [5]) was “around 19.6%”. For the same compound, the viability at 10 µM (A549 cell line) was 86.7%, the viability at 20 µM (A549 cell line) was 82.1% and the viability at 40 µM (A549 cell line) was 74.3%. For the same compound, the viability at 60 µM (A549 cell line) was 64.6%, the viability at 80 µM (A549 cell line) was 60.8% and the survivin protein expression (survivin [6]) was “significantly inhibited surviving protein expression”. The survivin gene expression (survivin [7]) was “no significant change”, the “average percentage of G1 fractions” value (A549 cells [8]) was 76.1% and the “active form of caspase 3” value (caspase 3) was “did not induce any significant change of caspase 3 and PARP”. It also gave a remaining activity at 10 µM [9] of 92%, a remaining activity at 10 µM (MARK2 (PAR-1Ba)) of 86% and a remaining activity at 10 µM [10] of 30%. The remaining activity at 10 µM [11] was 27%, the “cleaved form of PARP” value (PARP) was “did not induce any significant change of caspase 3 and PARP” and the remaining activity at 10 µM [12] was 76%. It also gave a remaining activity at 10 µM [13] of 19%, a remaining activity at 10 µM [14] of 9% and a remaining activity at 10 µM [15] of 84%. For the same compound, the viability at 24 h [16] was > 30%.

For `COc1cc2ncnc(Nc3ccc(F)c(Cl)c3)c2cc1OCCCN1CCN(C(=O)CCC(=O)O)CC1` [Analogue-2, 4-(4-(3-(4-(3-chloro-4-fluorophenylamino)-7-methoxyquinazolin-6-yloxy)propyl)piperazin-1-yl)-4-oxobutanoic acid], the “toxicity effect on BFTC905 cells” value [1] was “minor toxicity effect on BFTC905 cells” and the “toxicity effect on RKO cells” value [2] was “no toxicity effect on RKO cells”.

With `COC(=O)CCCCCCCC(=O)N1CCN(CCCOc2cc3c(Nc4ccc(F)c(Cl)c4)ncnc3cc2OC)CC1` [Analogue-7, methyl 9-(4-(3-(4-(3-chloro-4-fluorophenylamino)-7-methoxyquinazolin-6-yloxy)propyl)piperazin-1-yl)-9-oxononanoate] the viability at 10 µM (A549 cell line) was 90.3%, the viability at 20 µM (A549 cell line) was 89.7% and the viability at 40 µM (A549 cell line) was 85.8%. The viability at 60 µM (A549 cell line) was 84.8% and the viability at 80 µM (A549 cell line) was 80.9%.

Compound `CCCCCCCCCCCCCCOC(=O)CCC(=O)N1CCN(CCCOc2cc3c(Nc4ccc(F)c(Cl)c4)ncnc3cc2OC)CC1` [Analogue-20, tetradecyl 4-(4-(3-(4-(3-chloro-4-fluorophenylamino)-7-methoxyquinazolin-6-yloxy)propyl)piperazin-1-yl)-4-oxobutanoate] has a viability at 10 µM (A549 cell line) of 100%, a viability at 20 µM (A549 cell line) of 92.3% and a viability at 40 µM (A549 cell line) of 88.6%. For the same compound, the viability at 60 µM (A549 cell line) was 84.9% and the viability at 80 µM (A549 cell line) was 77.2%.

In the case of `CCCCCCCCCCCCCCCCCCCOC(=O)CCC(=O)N1CCN(CCCOc2cc3c(Nc4ccc(F)c(Cl)c4)ncnc3cc2OC)CC1` [Analogue-25, nonadecyl 4-(4-(3-(4-(3-chloro-4-fluorophenylamino)-7-methoxyquinazolin-6-yloxy)propyl)piperazin-1-yl)-4-oxobutanoate], the viability at 10 µM (A549 cell line) is reported as 94.5%, the viability at 20 µM (A549 cell line) is reported as 94.8% and the viability at 40 µM (A549 cell line) is reported as 92.3%. It also gave a viability at 60 µM (A549 cell line) of 89.3% and a viability at 80 µM (A549 cell line) of 88.4%.
